Experimental data: PubChem BioAssay AID1117327 (Cheminformatics & Chemogenomics Research Group (CCRG), …, 2015)
Calls of active or inactive are those of the source. The rule behind the calls is not given here.

Test system: C2C12 + WNT3A conditioned medium, alkaline phosphatase
Assay: alkaline phosphatase induction in C2C12 cells, dose response, cell-based, WNT3A-conditioned medium (AID 1117327)

| Structure (SMILES) | IC50 |
| --- | --- |
| CCCN(CCC)C(=O)C(CCC(=O)OCCCN1CCN(CCOC(=O)Cc2c(C)n(C(=O)c3ccc(Cl)cc3)c3ccc(OC)cc23)CC1)NC(=O)c1ccccc1 (configuration not stated) | 13.2 µM (inactive) |
| CN(C)C(=S)SSC(=S)N(C)C | > 20 µM (inactive) |
| Cc1nc(Nc2ncc(C(=O)Nc3c(C)cccc3Cl)s2)cc(N2CCN(CCO)CC2)n1 | 0.0067 µM |
| CN1C[C@H](CNC(=O)OCc2ccccc2)C[C@@H]2c3cccc4c3c(cn4C)C[C@H]21 | > 20 µM (inactive) |
| CCCCCCCCCCOCC(O)CN (configuration not stated) | > 20 µM (inactive) |
| COC(=O)[C@H]1[C@H]2C[C@@H]3c4[nH]c5cc(OC)ccc5c4CCN3C[C@H]2C[C@@H](OC(=O)/C=C/c2ccc(O)c(OC)c2)[C@@H]1OC | 10.4 µM (inactive) |
| NC(N)=NN=C(/C=C/c1ccc([N+](=O)[O-])o1)/C=C/c1ccc([N+](=O)[O-])o1 | 0.372 µM |
| Cc1ccc([N+](=O)[O-])[c]2c1[O][Hg]2 | 0.155 µM |
| CC(C)C[C@H](NC(=O)[C@H](CCc1ccccc1)NC(=O)CN1CCOCC1)C(=O)N[C@@H](Cc1ccccc1)C(=O)N[C@@H](CC(C)C)C(=O)[C@@]1(C)CO1 | 0.0152 µM |
| CCCCCCCCCCCC(=O)[O][Sn]([CH2]CCC)([CH2]CCC)[O]C(=O)CCCCCCCCCCC | > 20 µM (inactive) |
| [O-][n+]1ccccc1SSc1cccc[n+]1[O-] | 0.131 µM |
| CC[C@@H]([C@H](C)O)n1ncn(-c2ccc(N3CCN(c4ccc(OC[C@@H]5CO[C@@](Cn6cncn6)(c6ccc(F)cc6F)C5)cc4)CC3)cc2)c1=O | 1.63 µM |
| COc1cc(NCc2ccc3nc(N)nc(N)c3c2C)cc(OC)c1OC | > 20 µM (inactive) |
| C=CC(=O)Nc1cc2c(Nc3ccc(F)c(Cl)c3)ncnc2cc1OCCCN1CCOCC1 | 9.46 µM (inactive) |
| C[C@@]12C(=O)OC(=O)[C@]1(C)C1CCC2O1 | 1.49 µM |
| COc1ccc2cc1Oc1ccc(cc1)C[C@H]1c3c(cc4c(c3Oc3cc5c(cc3OC)CCN(C)[C@@H]5C2)OCO4)CCN1C | 2.05 µM |
| O=C1C(I)=CC(=C(c2cc(I)c(O)c(I)c2)c2ccccc2C(=O)O)C=C1I | > 20 µM (inactive) |
| Cc1ccccc1C(=O)Nc1ccc(C(=O)N2CCCC(N(C)C)c3ccccc32)cc1 (configuration not stated) | 9.98 µM (inactive) |
| COc1cc(C=C2CCC/C(=C\c3ccc(O)c(OC)c3)C2=O)ccc1O | > 20 µM (inactive) |
| CCCCC1C(=O)N(c2ccccc2)N(c2ccc(O)cc2)C1=O (configuration not stated) | 4.92 µM |
| Cc1cc(C2CCCCC2)n(O)c(=O)c1 | 1.05 µM |

| Structure (SMILES) | IC50 |
| --- | --- |
| CCCSc1ccc2nc(NC(=O)OC)[nH]c2c1 | 12.3 µM (inactive) |
| CCCCCCCCCCCCCC[N+](C)(C)Cc1ccccc1 | > 20 µM (inactive) |
| CCCCCCCCCCCCNCCNCCNCC(=O)O | > 20 µM (inactive) |
| CC(=O)Oc1ccc(C2(c3ccc(OC(C)=O)cc3)Oc3ccccc3NC2=O)cc1 | 14 µM (inactive) |
| Cc1cc(=O)c2c(O)c3c(O)cc(=O)c4c3c3c(cc(O)c1c23)C(C)(C)C=4O | 2.91 µM |
| O=C1OC2(c3cc(Br)c(O)cc3Oc3c2cc(Br)c(O)[c]3[Hg])c2ccccc21 (configuration not stated) | > 20 µM (inactive) |
| COc1cccc2c1C(=O)c1c(O)c3c(c(O)c1C2=O)C[C@@](O)(C(=O)CO)CC3OC1CC(N2CCOC(OC)C2)C(O)C(C)O1 (some centres not stated) | > 20 µM (inactive) |
| COC(=O)c1nc(Cl)c(Cl)nc1N | 0.157 µM |
| Clc1cc(Cl)c(OCC#CI)cc1Cl | > 20 µM (inactive) |
| COC(=O)Nc1nc2ccc(C(=O)c3cccs3)cc2[nH]1 | 0.0434 µM |
| CC(=O)[C@]1(O)Cc2c(O)c3c(c(O)c2[C@@H](O[C@H]2C[C@H](N)[C@H](O)[C@H](C)O2)C1)C(=O)c1ccccc1C3=O | 0.504 µM |
| Cc1nc(N)nc(N)c1-c1ccc(Cl)c(Cl)c1 | 0.0299 µM |
| CC(C)(C)C(=O)OCOP(=O)(COCCn1cnc2c(N)ncnc21)OCOC(=O)C(C)(C)C | 0.387 µM |
| O=C1C2CC=CCC2C(=O)N1SC(Cl)(Cl)Cl (configuration not stated) | 0.511 µM |
| O=C(Nc1ccc([N+](=O)[O-])cc1Cl)c1cc(Cl)ccc1O | > 20 µM (inactive) |
| COC(=O)Nc1nc2ccc(C(=O)C3CC3)cc2[nH]1 | 0.684 µM |
| CCc1nc(N)nc(N)c1-c1ccc(Cl)cc1 | 0.0677 µM |
| Nc1ccc2cc3ccc(N)cc3nc2c1 | > 20 µM (inactive) |
| COC(=O)Nc1nc2ccc(S(=O)c3ccccc3)cc2[nH]1 (configuration not stated) | 0.559 µM |
| Cc1cc(O)c2ccccc2c1O | 1.75 µM |
| O=[N+]([O-])C(Br)(CO)CO | > 20 µM (inactive) |
